Results reported in paper PMC5294416, “Novel peptides for deciphering structural and signalling functions of E-cadherin in mouse embryonic stem cells” (Scientific Reports, 2017).
Ends that are not written are not given here.

What was measured:
[1] = tested on: Nanog, Klf4, Tbx3, Esrrb, Nr0b1, Nr5a2 and Tet1 transcripts in wtD3 mESCs; assay: qPCR analysis of pluripotency transcript expression; type: cell-based, mouse
Method: (§1) Unless otherwise stated, mESC lines were grown on gelatinised tissue culture grade 6-well plates at 37 °C/5% CO2, as previously described. mESCs cells were treated with 10 μM peptide in mESC culture medium which was replenished every 24 h. Inhibition of specific pathways in mESCs was achieved by incubation with 10 μM LY294002 (PI3K inhibitor), PD9805 (MEK inhibitor) and SB431542 (TGFβ1 R inhibitor).
Primers for qPCR were designed using the Roche Applied science Universal Probe Library software and BLAST screened for sequence specificity. Only primers producing a single dissociation peak were used. RNA was extracted from mESCs and cDNA at a concentration of 2 ng/μl was used for analysis in a MicroAmp Optical 96-well Reaction Plate (Applied Biosystems) using SYBR green Jumpstart Taq ReadyMix (Applied Biosystems). Primer sequences: 18srRNA Forward (F) […], Reverse (R) […]; ESRRB F-[…], R-[…]; KLF4 F-[…], R-ATGTCCGCCAGGTTGAAG; NANOG F-[…], R-[…]; NR0B1 F-[…], R-[…]; NR5A2 F-[…], R-[…]; TBX3 F-[…], R-[…]; TET1 F-[…], R-[…].

mESCs = assay: Cell viability in monolayer culture; type: cell-based, mouse; conditions: data not shown
[2] = target: T1, recombinant mouse E-Cadherin Fc Chimera (Mus musculus, UniProt P09803); assay: Biacore SPR equilibrium binding analysis (affinity capture); conditions: equilibrium analysis using affinity capture on HTE chip, peptide stock in water, average of three runs, running buffer HBS/0.02% Tween/2 mM CaCl2/1 mM MgCl2
T1 construct: purchased R&D Systems
Method: Biacore SPR analysis was used to measure the interaction between peptides and recombinant mouse E-Cadherin Fc Chimera (R&D Systems). Analytes were passed over an HTE chip with surface bound His-tagged Recombinant Mouse E-Cadherin Fc Chimera (R&D Systems). The kinetics of interaction, i.e. the rates of complex formation (ka) and dissociation (kd), were determined and Integrin α4β7 protein was used as a control. Analysis was performed by the Biomolecular Analysis Core Facility (The University of Manchester, UK) on a Proteon XPR-36 protein interaction array system (Bio-Rad) using a HTE chip for high capacity His-tagged protein capture (Bio-Rad). Equilibrium analysis runs were performed three times and an average KD was calculated. Running buffer: HBS/0.02%, Tween/2 mM, CaCl2/1 mM MgCl2.

[3] = tested on: OCT4 protein in wtD3 mESCs; assay: Immunofluorescence microscopy analysis of OCT4 protein expression with pathway inhibitors; type: cell-based, mouse; conditions: peptide-treated wtD3 mESCs plus FGFR1 inhibitor SU5402, after 5 days
Method: as §1
(§2) Monolayer cultured mESCs were fixed in situ in 4% w/v PFA in PBS for 30 minutes at room temperature, washed twice with PBS and blocked with 1% goat serum in 0.1% w/v BSA, 0.1% Triton X-100 in PBS for 30 minutes. Cells were incubated in the appropriate primary antibody in goat blocking buffer for two hours at RT. Cells were washed three times in PBS and incubated in the appropriate Alexa fluor-488 or −546 conjugated secondary antibody at RT for 1 hour in the dark. Cells were washed three times with PBS, mounted in 4′6-diamidino-2-phenylindole (DAPI) (Vector Laboratories) and visualized using a Leica DM6000B fluorescence microscope (Leica Microsystems) and processed using Leica LAS X Core software (Leica Microsystems). Primary antibodies: anti-Nanog, 1:200 dilution (ab80892, Abcam Plc, Cambridge, UK); anti-Oct4, 1:200 dilution (ab19857, Abcam Plc, Cambridge, UK). For immunofluorescence microscopy analysis of fluorescent-tagged peptides, cells were incubated in 500 μM peptide in cell culture medium for 15 minutes, washed twice in ice cold PBS and mounted with Vectorshield containing DAPI. Cells were visualized using a Leica DM6000B fluorescence microscope (Leica Microsystems) and processed using Leica LAS X Core software (Leica Microsystems).
(§3) Images were imported into ImageJ and fluorescence intensity measured using the Analyse > Measure function on areas selected using the rectangular or oval selection icons.

[4] = tested on: NANOG protein in wtD3 mESCs; assay: Immunofluorescence microscopy analysis of NANOG protein expression; type: cell-based, mouse; conditions: 96 h / 4 days where stated
Method: as §2, with “For immunofluorescence microscopy analysis of fluorescent-tagged peptides, cells were incubated in 500 μM peptide in cell culture medium for 15 minutes, washed twice in ice cold PBS and mounted with Vectorshield containing DAPI.” left out
as §3

pERK1/2 in wtD3 mESCs = assay: Western blot analysis of phosphorylated ERK1/2; type: cell-based, mouse
wtD3 and Ecad−/− mESCs = assay: Binding of fluorescent-tagged peptides to wtD3 versus Ecad−/− mESCs; type: cell-based, mouse; conditions: fluorescein-tagged peptide, 500 μM, 15 minutes, 37 °C, immunofluorescence microscopy / flow cytometry
Method: D3 and Ecad^−/− mESCs were treated with Epep-F or EpepW2R-F at concentrations of 0 (control), 5, 10, 25, 50 and 500 μM in culture medium as a monolayer on ice. Ice cold conditions were utilised to minimise endocytosis of fluorescent tagged peptide. Cells were harvested using cell dissociation buffer, centrifuged and washed with PBS and fixed in 500 μl 1% w/v paraformaldehyde (PFA) in PBS for analysis using a FACSCalibur (BD Biosciences, California, USA). Viable cells were gated using forward scatter and side scatter and all data shown represents quantification of the fluorescence emitted by this population.
Monolayer cultured mESCs were fixed in situ in 4% w/v PFA in PBS for 30 minutes at room temperature, washed twice with PBS and blocked with 1% goat serum in 0.1% w/v BSA, 0.1% Triton X-100 in PBS for 30 minutes. Cells were incubated in the appropriate primary antibody in goat blocking buffer for two hours at RT. […] Cells were washed three times with PBS, mounted in 4′6-diamidino-2-phenylindole (DAPI) (Vector Laboratories) and visualized using a Leica DM6000B fluorescence microscope (Leica Microsystems) and processed using Leica LAS X Core software (Leica Microsystems). […] Cells were visualized using a Leica DM6000B fluorescence microscope (Leica Microsystems) and processed using Leica LAS X Core software (Leica Microsystems). […]

wtD3 mESCs [5] = assay: Loss of cell-cell contact, phase contrast microscopy; type: cell-based, mouse; conditions: wtD3 mESCs, 10 μM peptide, 24 h, phase contrast
Method: as §1

[6] = tested on: STAT3 phosphorylation in wtD3 mESCs; assay: Western blot analysis of phosphorylated STAT3; type: cell-based, mouse; conditions: wtD3 mESCs vs control treated cells, western blot
Method: as §1
Cells were harvested using cell dissociation buffer, centrifuged and washed with PBS prior to lysis using Radioimmunoprecipitation (RIPA) buffer (Sigma) containing protease inhibitor cocktail tablets (1 tablet per 10 ml RIPA buffer) (Roche Applied Science) at a concentration of 2 × 10^7 cell/ml. Lysates were separated by SDS-PAGE and electrotransferred onto nitrocellulose membrane as previously described. The membrane was probed using the appropriate primary antibody with subsequent incubation with HRP-conjugated secondary antibody. The membrane was exposed to an autoradiographic film (Hyperfilm ECL, GE Healthcare, Amersham, UK) for the appropriate time period in an X-ray cassette before the film was manually developed in a dark room using Kodak GBX developer and fixer solutions (Sigma, Dorset, UK). Primary antibodies: anti-α-tubulin, 1:2000 dilution (T9026, Sigma, Dorset, UK); anti-AKT, 1:200 dilution (#9272, Cell Signalling Technology, MA, USA); anti-pAKT (Ser473), 1:200 (#4060S, Cell Signalling Technology, MA, USA); anti-STAT3, 1:200 dilution (SC-482, Santa Cruz Biotechnology Inc, TX, USA); anti-pSTAT3, 1:200 dilution (#9138S, Cell Signalling Technology, MA, USA).

wtD3 mESCs [7] = type: cell-based; conditions: 24 h, 10 μM
Source text: Cell viability was quantified using an Alexa Fluor 488 Annexin V/Dead Cell Apoptosis Kit (Invitrogen) according to the manufacturer’s instructions.

[8] = target: T2, His-tagged Recombinant Mouse E-Cadherin Fc Chimera, P09803; assay: Biacore SPR equilibrium affinity capture analysis; conditions: chain shown with the change
T2 chain: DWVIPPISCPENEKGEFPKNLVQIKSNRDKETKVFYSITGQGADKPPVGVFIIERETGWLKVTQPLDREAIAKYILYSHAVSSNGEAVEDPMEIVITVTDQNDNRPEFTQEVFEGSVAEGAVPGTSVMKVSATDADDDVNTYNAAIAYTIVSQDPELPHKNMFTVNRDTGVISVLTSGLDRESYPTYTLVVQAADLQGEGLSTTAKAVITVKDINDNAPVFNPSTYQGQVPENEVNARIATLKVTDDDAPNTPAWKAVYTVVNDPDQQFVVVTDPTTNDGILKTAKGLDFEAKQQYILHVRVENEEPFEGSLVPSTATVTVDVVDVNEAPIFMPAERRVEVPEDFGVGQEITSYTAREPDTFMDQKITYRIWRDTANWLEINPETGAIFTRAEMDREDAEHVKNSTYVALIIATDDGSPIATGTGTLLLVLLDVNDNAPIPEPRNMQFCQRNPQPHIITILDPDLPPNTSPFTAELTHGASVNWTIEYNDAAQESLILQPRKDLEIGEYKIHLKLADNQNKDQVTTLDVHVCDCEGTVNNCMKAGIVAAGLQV

[9] = target: His-tagged Recombinant Mouse E-Cadherin Fc Chimera (mouse) (UniProt P09803); assay: SPR; as a1, E-cadherin-Fc captured on the HTE chip; peptide dissolved in 10%v/v DMSO/H2O; EpepP7R at 0.3, 1, 3, 5, 10 μM; equilibrium analysis
[10] = transcript, mESCs, Fig. 6a summary

## SRELYYPLRANL [EpepW2R, Epep with the Trp-2 residue replaced with arginine, …]
[1]; [10]
  Loss of Nanog: YES
  Loss of Nr0b1: YES
  Loss of Nr5a2: YES
  Loss of TBX3: YES
[1]; wtD3 mESCs, 10 μM peptide, 24 h
  Transcripts with decreased expression compared to control (qPCR): Nanog, Tbx3, Nr0b1 and Nr5a2
[1]; wtD3 mESCs, 24 h treatment
  Transcripts unchanged / not inhibited (qPCR): Klf4 and Esrrb
mESCs
  cell viability in monolayer culture: no significant difference in cell viability
[2]
  KD: did not produce a strong enough response to perform equilibrium analysis
[3]
  OCT4 protein expression in the presence of SU5402: increased cell death and statistically significant loss of OCT protein expression
[4]
  NANOG protein expression: decreased levels of protein
pERK1/2 in wtD3 mESCs
  pERK1/2 compared to untreated mESCs: decreased pERK1/2
wtD3 and Ecad−/− mESCs
  Binding of fluorescent-tagged peptide to wtD3 versus Ecad−/− mESCs: binds specifically to E-cadherin
wtD3 mESCs [5]
  Effect on cell-cell contact (in words): did not induce loss of cell-cell contact
[6]
  Effect on STAT3 phosphorylation (in words): unaffected

## SWELYYP [EpepΔCtm]
[2]
  Kd: 2.7 µM
wtD3 mESCs [7]
  viable population (lower left box): 59.1%

## AWELYYPLRANL [Epep (E-cadherin binding peptide H-…-NH2) S1A]
[8]
  Kd: 1.19 µM

## SWELYYRLRANL [EpepP7R]
[9]
  Kd: 3.87 µM
